Source: ChEMBL document CHEMBL1134774, “Design, synthesis, and structure-activity relationships of a series of 3-[2-(1-benzylpiperidin-4-yl)ethylamino]pyridazine derivatives as acetylcholinesterase inhibitors” (J Med Chem, 2001)

Experiments:
Acetylcholinesterase [1] = target: Acetylcholinesterase (Electrophorus electricus, UniProt O42275)
Description: In vitro inhibition of electric eel acetylcholinesterase

[2] = target: T1, Choline O-acetyltransferase (Rattus norvegicus) (UniProt P32738); assay: IC50 (hBuChE/hAChE) ratio of the compound
T1 sequence (whole entry): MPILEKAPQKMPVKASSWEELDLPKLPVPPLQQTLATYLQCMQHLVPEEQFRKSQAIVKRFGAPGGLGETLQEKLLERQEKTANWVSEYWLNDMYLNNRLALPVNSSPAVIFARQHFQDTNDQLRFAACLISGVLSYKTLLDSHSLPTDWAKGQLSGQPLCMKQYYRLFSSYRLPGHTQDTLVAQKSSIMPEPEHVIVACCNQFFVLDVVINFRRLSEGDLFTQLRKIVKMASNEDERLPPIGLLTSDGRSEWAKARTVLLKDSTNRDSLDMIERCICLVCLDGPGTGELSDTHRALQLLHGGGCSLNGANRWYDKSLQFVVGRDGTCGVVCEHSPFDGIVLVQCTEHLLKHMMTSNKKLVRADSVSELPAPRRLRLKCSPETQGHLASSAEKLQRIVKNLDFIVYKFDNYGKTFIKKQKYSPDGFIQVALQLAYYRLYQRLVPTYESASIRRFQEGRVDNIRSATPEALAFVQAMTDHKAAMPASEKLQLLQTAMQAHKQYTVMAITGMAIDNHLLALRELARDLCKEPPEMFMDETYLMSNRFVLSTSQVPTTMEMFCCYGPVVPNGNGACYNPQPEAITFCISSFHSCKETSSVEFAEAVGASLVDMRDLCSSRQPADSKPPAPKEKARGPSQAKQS

Acetylcholinesterase [3] = target: Acetylcholinesterase (Homo sapiens, UniProt P22303)
Description: In vitro inhibition of acetylcholinesterase from human erythrocytes

Cholinesterase = Cholinesterase (Homo sapiens, UniProt P06276)
Sequence of Cholinesterase (P06276 whole entry): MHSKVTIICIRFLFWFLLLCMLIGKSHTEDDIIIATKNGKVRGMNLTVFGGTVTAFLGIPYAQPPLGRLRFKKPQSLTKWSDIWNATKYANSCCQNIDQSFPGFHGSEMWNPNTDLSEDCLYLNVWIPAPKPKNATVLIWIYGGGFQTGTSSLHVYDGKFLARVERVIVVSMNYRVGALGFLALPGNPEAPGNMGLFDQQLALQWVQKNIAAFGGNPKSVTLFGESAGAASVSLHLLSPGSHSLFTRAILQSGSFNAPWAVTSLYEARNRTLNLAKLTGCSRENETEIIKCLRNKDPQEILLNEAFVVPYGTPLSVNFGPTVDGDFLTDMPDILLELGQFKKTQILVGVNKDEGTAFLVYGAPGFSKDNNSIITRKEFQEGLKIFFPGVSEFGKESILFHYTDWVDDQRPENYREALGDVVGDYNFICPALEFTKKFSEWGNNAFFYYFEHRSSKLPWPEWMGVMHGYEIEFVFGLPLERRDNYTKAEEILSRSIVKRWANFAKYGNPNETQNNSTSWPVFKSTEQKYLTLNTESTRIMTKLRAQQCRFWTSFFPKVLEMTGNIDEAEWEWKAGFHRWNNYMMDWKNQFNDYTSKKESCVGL
Description: Inhibition of butyrylcholinesterase from human serum

Sequence of Acetylcholinesterase (Electrophorus electricus, UniProt O42275) (O42275 whole entry): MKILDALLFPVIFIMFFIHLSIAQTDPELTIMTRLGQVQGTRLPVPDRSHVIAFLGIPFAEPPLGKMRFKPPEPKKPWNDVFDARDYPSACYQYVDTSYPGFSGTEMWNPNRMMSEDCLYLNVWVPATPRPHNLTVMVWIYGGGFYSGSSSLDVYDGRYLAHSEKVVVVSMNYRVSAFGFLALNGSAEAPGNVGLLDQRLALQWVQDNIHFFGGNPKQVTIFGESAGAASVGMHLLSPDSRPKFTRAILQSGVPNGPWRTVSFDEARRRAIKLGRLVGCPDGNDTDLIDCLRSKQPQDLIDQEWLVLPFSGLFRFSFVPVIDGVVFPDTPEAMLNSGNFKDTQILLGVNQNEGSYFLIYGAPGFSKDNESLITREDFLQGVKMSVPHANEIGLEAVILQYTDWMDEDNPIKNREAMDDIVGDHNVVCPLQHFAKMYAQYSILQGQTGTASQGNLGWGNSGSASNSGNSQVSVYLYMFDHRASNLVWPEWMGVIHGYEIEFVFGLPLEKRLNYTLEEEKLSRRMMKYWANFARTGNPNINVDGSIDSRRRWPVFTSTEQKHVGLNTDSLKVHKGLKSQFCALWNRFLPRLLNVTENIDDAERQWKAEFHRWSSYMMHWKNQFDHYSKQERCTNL
Sequence of Acetylcholinesterase (Homo sapiens, UniProt P22303) (P22303 whole entry): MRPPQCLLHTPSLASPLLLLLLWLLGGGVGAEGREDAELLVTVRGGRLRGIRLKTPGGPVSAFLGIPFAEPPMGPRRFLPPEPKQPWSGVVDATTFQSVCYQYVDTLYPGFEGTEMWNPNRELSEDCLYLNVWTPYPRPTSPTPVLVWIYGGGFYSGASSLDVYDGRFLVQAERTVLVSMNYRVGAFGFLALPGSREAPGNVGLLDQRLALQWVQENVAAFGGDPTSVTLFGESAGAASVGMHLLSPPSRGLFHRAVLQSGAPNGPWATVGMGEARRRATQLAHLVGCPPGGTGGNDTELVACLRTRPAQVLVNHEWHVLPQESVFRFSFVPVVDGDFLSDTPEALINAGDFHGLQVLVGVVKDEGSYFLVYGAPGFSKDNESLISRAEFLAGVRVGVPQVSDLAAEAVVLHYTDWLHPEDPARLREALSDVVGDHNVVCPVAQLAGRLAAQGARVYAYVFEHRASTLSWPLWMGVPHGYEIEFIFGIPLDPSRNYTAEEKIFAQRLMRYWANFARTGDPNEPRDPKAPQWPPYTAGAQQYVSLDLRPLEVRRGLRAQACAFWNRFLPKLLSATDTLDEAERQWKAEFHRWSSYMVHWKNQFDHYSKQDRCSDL

c1ccc(CN2CCC(CCNc3ccc(-c4ccc5ccccc5c4)nn3)CC2)cc1
IC50 (Acetylcholinesterase [1]): 56 nM

c1ccc(CN2CCC(CCNc3ccc(-c4ccccc4)nn3)CC2)cc1
IC50 ratio [2]: 5 | IC50 (Acetylcholinesterase [1]): 120 nM

CCc1ccccc1-c1ccc(NCCC2CCN(Cc3ccccc3)CC2)nn1
IC50 (Acetylcholinesterase [1]): 87 nM

c1ccc(CN2CCC(CCN=c3[nH]nc(-c4ccccc4)c4ccccc34)CC2)cc1
IC50 (Acetylcholinesterase [1]): 440 nM

c1ccc(CC2CCN(CCNc3ccc(-c4ccccc4)nn3)CC2)cc1
IC50 (Acetylcholinesterase [1]): 24000 nM

CCc1cc(=NCCC2CCN(Cc3ccccc3)CC2)[nH]nc1-c1ccccc1
IC50 (Acetylcholinesterase [3]): 66 nM | IC50 (Cholinesterase): 920 nM | IC50 ratio [2]: 14 | IC50 (Acetylcholinesterase [1]): 27 nM

c1ccc(CN2CCC(CCNc3cc4c(nn3)-c3ccccc3CC4)CC2)cc1
IC50 (Acetylcholinesterase [3]): 190 nM | IC50 (Cholinesterase): 280 nM | IC50 ratio [2]: 1.5 | IC50 (Acetylcholinesterase [1]): 39 nM

N#Cc1ccc(-c2ccc(NCCC3CCN(Cc4ccccc4)CC3)nn2)cc1
IC50 (Acetylcholinesterase [1]): 100 nM

O=C(CNc1ccc(-c2ccccc2)nn1)N1CCC(Cc2ccccc2)CC1
IC50 (Acetylcholinesterase [1]): 120000 nM

c1ccc(CN2CCC(CCN=c3cc4c(n[nH]3)-c3ccccc3C4)CC2)cc1
IC50 (Acetylcholinesterase [3]): 74 nM | IC50 (Cholinesterase): 230 nM | IC50 ratio [2]: 3.1 | IC50 (Acetylcholinesterase [1]): 10 nM

c1ccc(CN2CCC(CCNc3ccc(-c4cccs4)nn3)CC2)cc1
IC50 (Acetylcholinesterase [1]): 97 nM

c1ccc(CN2CCC(CCNc3cccnn3)CC2)cc1
IC50 (Acetylcholinesterase [1]): 240 nM

CC(C)c1cc(-c2ccccc2)nnc1NCCC1CCN(Cc2ccccc2)CC1
IC50 (Acetylcholinesterase [1]): 430 nM

Clc1ccccc1-c1ccc(NCCC2CCN(Cc3ccccc3)CC2)nn1
IC50 (Acetylcholinesterase [1]): 80 nM

c1ccc(CN2CCC(CCSc3ccc(-c4ccccc4)nn3)CC2)cc1
IC50 (Acetylcholinesterase [3]): 470 nM | IC50 (Cholinesterase): 480 nM | IC50 (Acetylcholinesterase [1]): 63000 nM

c1ccc(CN2CCC(CCNc3ccc(-c4cccnc4)nn3)CC2)cc1
IC50 (Acetylcholinesterase [1]): 57 nM

c1ccc(CN2CCC(CCNc3cc4c(nn3)-c3ccccc3CCC4)CC2)cc1
IC50 (Acetylcholinesterase [3]): 120 nM | IC50 (Cholinesterase): 510 nM | IC50 (Acetylcholinesterase [1]): 22 nM

Cc1cc(-c2ccccc2)nnc1NCCC1CCN(Cc2ccccc2)CC1
IC50 (Acetylcholinesterase [1]): 320 nM

O=C(CN1CCC(Cc2ccccc2)CC1)Nc1ccc(-c2ccccc2)nn1
IC50 (Acetylcholinesterase [1]): 18000 nM

O=C(CC1CCN(Cc2ccccc2)CC1)Nc1ccc(-c2ccccc2)nn1
IC50 (Acetylcholinesterase [1]): 4200 nM

CCCc1cc(=NCCC2CCN(Cc3ccccc3)CC2)[nH]nc1-c1ccccc1
IC50 (Acetylcholinesterase [1]): 61 nM

COc1ccc(NCCC2CCN(Cc3ccccc3)CC2)nn1
IC50 (Acetylcholinesterase [1]): 220 nM

c1ccc(CN2CCC(CCNc3cc4ccc5ccccc5c4nn3)CC2)cc1
IC50 (Acetylcholinesterase [3]): 190 nM | IC50 (Cholinesterase): 270 nM | IC50 (Acetylcholinesterase [1]): 22 nM

CC(=O)c1cccc(-c2ccc(NCCC3CCN(Cc4ccccc4)CC3)nn2)c1
IC50 (Acetylcholinesterase [1]): 54 nM

FC(F)(F)c1cc(-c2ccc(NCCC3CCN(Cc4ccccc4)CC3)nn2)cc(C(F)(F)F)c1
IC50 (Acetylcholinesterase [1]): 56 nM

Cc1cc(C)c(-c2ccc(NCCC3CCN(Cc4ccccc4)CC3)nn2)c(C)c1
IC50 (Acetylcholinesterase [1]): 3000 nM

COc1ccccc1-c1ccc(NCCC2CCN(Cc3ccccc3)CC2)nn1
IC50 (Acetylcholinesterase [1]): 110 nM

Fc1ccc(-c2ccc(NCCC3CCN(Cc4ccccc4)CC3)nn2)cc1
IC50 (Acetylcholinesterase [1]): 350 nM

CC(=O)Nc1cccc(-c2ccc(NCCC3CCN(Cc4ccccc4)CC3)nn2)c1
IC50 (Acetylcholinesterase [1]): 58 nM

CN(C)c1ccc(-c2ccc(NCCC3CCN(Cc4ccccc4)CC3)nn2)cc1
IC50 (Acetylcholinesterase [1]): 210 nM

O=C(CNc1ccc(-c2ccccc2)nn1)N1CCN(Cc2ccccc2)CC1
IC50 (Acetylcholinesterase [1]): 15000 nM

c1ccc(CN2CCC(CCOc3ccc(-c4ccccc4)nn3)CC2)cc1
IC50 (Acetylcholinesterase [3]): 710 nM | IC50 (Cholinesterase): 1600 nM | IC50 (Acetylcholinesterase [1]): 140000 nM

O=C(CN1CCN(Cc2ccccc2)CC1)Nc1ccc(-c2ccccc2)nn1
IC50 (Acetylcholinesterase [1]): 17000 nM

Cc1ccccc1-c1ccc(NCCC2CCN(Cc3ccccc3)CC2)nn1
IC50 (Acetylcholinesterase [1]): 90 nM

Clc1ccc(NCCC2CCN(Cc3ccccc3)CC2)nn1
IC50 (Acetylcholinesterase [1]): 73 nM

Cc1cc(=NCCC2CCN(Cc3ccccc3)CC2)[nH]nc1-c1ccccc1
IC50 (Acetylcholinesterase [3]): 39 nM | IC50 (Cholinesterase): 940 nM | IC50 ratio [2]: 24 | IC50 (Acetylcholinesterase [1]): 21 nM
